Square brackets hold non-standard residues; d marks the D form. Peptide text beside a SMILES is read from it.
How the values were obtained:
[1] = Stability (half-life) in human serum, intact peptide by UPLC-MS; format: in vitro ADME; conditions: human serum (50% in FIG. 5; 10 and 50% in PBS), 0.1 mM peptide
Experimental: FIG. 5: Stability of JNK inhibitors with SEQ ID NOs: 172, 196 and 197 in 50% human serum. The JNK inhibitor with SEQ ID NO: 196 was totally degraded into amino acids residues within 6 hours (A). The JNK inhibitor with SEQ ID NO: 172 was completely degraded only after 14 days (B). The JNK inhibitor with SEQ ID NO: 197 was stable at least up to 30 days (B).
The JNK inhibitors with the sequence of SEQ ID NOs: 196, 197, and 172 (0.1 mM final concentration) were digested in human serum (10 and 50% in PBS 1×). The experiment was performed as described by Tugyi et al. (Proc Natl Acad Sci USA, 2005, 413-418). The remaining intact peptide was quantified by UPLC-MS. Stability was assessed for SEQ ID NOs: 196, 197, and 172 identically but in two separate assays. While the JNK inhibitor with SEQ ID NO: 196 was totally degraded into amino acids residues within 6 hours, the JNK inhibitor with SEQ ID NO: 172 was completely degraded only after 14 days. The JNK inhibitor with SEQ ID NO: 197 was still stable after 30 days.

[2] = system: established type II collagen arthritis in rats; format: in vivo, rat
Description: Rat collagen arthritis is an experimental model of polyarthritis that has been widely used for preclinical testing of numerous anti-arthritic agents that are either under preclinical or clinical investigation or are currently used as therapeutics in this disease. The hallmarks of this model are reliable onset and progression of robust, easily measurable polyarticular inflammation, marked cartilage destruction in association with pannus formation, and mild to moderate bone resorption and periosteal bone proliferation.
Intravenous (IV) efficacy of the JNK inhibitor of SEQ ID NO: 172 administered daily (QD) for 14 days (arthritis d1-14) for inhibition of the inflammation (paw swelling), cartilage destruction, and bone resorption that occurs in established type II collagen arthritis in rats was determined in said experimental model. […]
Female Lewis rats with established type II collagen arthritis were treated daily (QD) on arthritis days 1-14 by the intravenous (IV) route with vehicle (NaCl), SEQ ID NO: 172 (0.01, 0.1, 1, or 5 mg/kg), or the reference compound dexamethasone (Dex, 0.05 mg/kg). […] Efficacy evaluation was based on animal body weights, daily ankle caliper measurements, ankle diameter expressed as area under the curve (AUC), terminal hind paw weights, and histopathologic evaluation of ankles and knees of selected groups. […]

With `CC(C)C[C@H](NC(=O)[C@H](CC(N)=O)NC(=O)[C@H](CC(C)C)NC(=O)[C@@H](NC(=O)[C@@H](C)NC(=O)[C@@H]1CCCN1C(=O)[C@H](CCCNC(=N)N)NC(=O)[C@@H](CCCCN)NC(=O)[C@@H]1CCCN1C(=O)[C@H](CCCNC(=N)N)NC(=O)[C@@H](CCCNC(=N)N)NC(=O)[C@H](CCCNC(=N)N)NC(=O)[C@H](CCCNC(=N)N)NC(=O)[C@H](CCC(N)=O)NC(=O)[C@@H](CCCNC(=N)N)NC(=O)[C@H](CCCNC(=N)N)NC(=O)[C@H](CCCCN)NC(=O)[C@H](CCCCN)NC(=O)[C@H](N)CCCNC(=N)N)[C@@H](C)O)C(=O)N[C@H](Cc1ccccc1)C(N)=O` [SEQ ID NO: 172, rKKRrQRRrRPkRPaTLNLf] (H-[dR]KKR[dR]QRR[dR]RP[dK]RP[dA]TLNL[dF]-NH2; N-terminus assumed) the “completely degraded only after” value [1] was 14 days, the “clinical and histopathology parameters (conclusion)” value ([2]; 5 mg/kg IV QD 14 days) was “significant beneficial effect on the clinical and histopathology parameters” and the “daily ankle diameter measurements vs disease controls” value ([2]; 5 mg/kg IV QD, p<0.05 days 4-12) was “reduced toward normal”.

Source: US10596223B2, “JNK inhibitor molecules for treatment of various diseases” (Xigen Inflammation Ltd., priority 2011, dated 2020)
